# Reference: patent US20050060764A1, “Mouse model for bone metabolism” (priority 2003, published 2005)
# Entries after “also recorded” stand apart in the source; their conditions may differ. Strand notation (5' to 3'): a small letter for the sugar, then the base; units joined by * are phosphorothioate-linked, units joined directly phosphodiester-linked; [ ] holds rarer units or linkages, { } end groups; capitals alone tell only the bases. e = 2'-O-(2-methoxyethyl) (MOE); [5mC] = 5-methylcytosine; d = 2'-deoxy (DNA)
# Experiments:
# [1] = test system: RANKL mRNA; assay: Antisense inhibition of RANKL mRNA expression followed by PTH treatment in primary mouse osteoblast cells: dose response (Table 8); assay type: cell-based; conditions: for % RANKL mRNA inhibition: 10 nM PTH last 2 h, relative to PTH alone
# Procedure: Primary mouse osteoblasts were prepared from calvaria of neonatal mice purchased from Charles River Laboratories. […] Cells were not passaged. Cells were seeded onto 6-well plates (Falcon-Primaria #353846) at a density of 50,000 cells/well for use in antisense oligonucleotide transfection.
# In a further embodiment of this invention, the effect of RANKL antisense oligonucleotides and PTH treatment on the expression of RANKL was determined in primary osteoblast cells isolated from mice skull caps.
# ISIS 143624 ([…], SEQ ID NO: 348) was used as a control oligonucleotide. […] All cytidine residues are 5-methylcytidines.
# Primary osteoblastic cells were transfected for 24 hours with either Isis 180819 (SEQ ID NO: 185) or the control oligo ISIS 143624 (SEQ ID NO: 348) at a dose of […], 125 nM, 250 nM, or 500 nM by the methods described herein but using the transfection reagent FuGENE 6 (Roche Applied Science, Indianapolis, Ind.). During the last 2 hours of oligonucleotide transfection, the cells were treated with 10 nM PTH. The RNA was then harvested and the expression levels of […] were measured by the methods described herein. The results are expressed as percent inhibition relative to PTH treatment alone and represent the average from three experiments.
# [2] = test system: RANKL mRNA; assay: as above; assay type: cell-based; conditions: 63 nM oligonucleotide 24 h, 10 nM PTH last 2 h, relative to PTH alone
# [3] = test system: mouse RANKL mRNA; assay: Antisense inhibition of mouse RANKL mRNA levels in C2C12 cells, quantitative real-time PCR (Table 2); assay type: cell-based; parameters: concentration or dose not given beside the values; conditions: averages from three experiments
# How it was run: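 C2C12 cells seeded at ~10,000 cells/cm^2, treated with antisense oligonucleotides (all C as 5-methylcytidine) in triplicate and harvested 16-24 h later. Mouse RANKL mRNA quantified by real-time RT-PCR with a FAM/TAMRA probe, with mouse GAPDH (JOE/TAMRA probe) as reference.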
# [4] = test system: mouse RANKL mRNA; assay: Antisense inhibition of mouse RANKL mRNA in C2C12 cells: dose response (Table 5); assay type: cell-based; conditions: relative to untreated control
# Procedure: Cells were seeded into 24-well plates (Falcon-353047 at a density of ˜10,000 cells/cm^2 for use in antisense oligonucleotide transfection.
# Cells are treated and data are obtained in triplicate. […] Cells were harvested 16-24 hours after oligonucleotide treatment.
# Probes and primers to mouse RANKL were designed to hybridize to a mouse RANKL sequence, using published sequence information (GenBank accession number AF013170.1, incorporated herein as SEQ ID NO:ll). For mouse RANKL the PCR primers were: • forward primer: […] (SEQ ID NO:12) • reverse primer: […] (SEQ ID NO: 13) and • the PCR probe was: FAM-[…]-TAMRA (SEQ ID NO: 14) where FAM is the fluorescent reporter dye and TAMRA is the quencher dye. For mouse GAPDH the PCR primers were: • forward primer: […](SEQ ID NO:15) • reverse primer: […](SEQ ID NO:16) and the • PCR probe was: 5′ JOE-[…]-TAMRA 3′ (SEQ ID NO: 17) where JOE is the fluorescent reporter dye and TAMRA is the quencher dye.
# In accordance with the present invention, a subset of the antisense oligonucleotides in Example 16 was further investigated in dose-response studies. The oligonucleotides used in this investigation were ISIS 180812 (SEQ ID NO: 178), ISIS 180814 (SEQ ID NO: 180), ISIS 180819 (SEQ ID NO: 185), ISIS 180828 (SEQ ID NO: 194) and the control oligonucleotide ISIS 101757 ([…], SEQ ID NO: 355). […] All cytidine residues are 5-methylcytidines.
# C2C12 cells were treated with the oligonucleotides at 10, 50, 75, 100, and 150 nM as described in other examples herein. […] The results are expressed as percent inhibition relative to the untreated control. The data, shown in Table 5, are averages from two experiments and illustrate the oligonucleotides of the present invention are able to downregulate RANKL mRNA expression in a dose-dependent manner.
# [5] = test system: RANKL mRNA; assay: Antisense inhibition of RANKL mRNA in proximal tibia and calvaria of mice after PTH infusion: dose response and delivery method (Table 9); assay type: in vivo, mouse
# Procedure: In accordance with the present invention, the levels of RANKL in the proximal tibia and calvaria in mice were measured following antisense oligonucleotide treatment and PTH infusion.
# Female Swiss-Webster mice (5-8 wks old) fed a low-calcium diet were treated with ISIS 180819 (SEQ ID NO: 185) by subcutaneous injection at a dose of either 30 mg/kg or 50 mg/kg or intraperitoneal injection at a dose of either 15 mg/kg, 30 mg/kg or 50 mg/kg. After 2 weeks of daily treatment, the mice were infused with PTH at a dose of 1 ug/100 g/6 hr. After 24 hours of PTH infusion (total PTH delivery of 4 ug/100 g), the mice were sacrificed. The proximal tibia and calvaria were isolated and the level of RANKL mRNA expression was determined in each using two different primer-probe sets to confirm the results. The first primer-probe set was #1207, consisting of […] (forward primer, SEQ ID NO: 349), […] (reverse primer, SEQ ID NO: 350) and […] (probe, SEQ ID NO: 351). The second primer-probe set was #1015, consisting of […] (forward primer, SEQ ID NO: 352), […] (reverse primer, SEQ ID NO: 353) and […] (probe, SEQ ID NO: 354). The results are expressed as percent inhibition relative to PTH treatment alone and represent the average of eight mice per group.
# [6] = Serum calcium concentration 24 hours after PTH infusion in mice treated with RANKL antisense oligonucleotides (Table 10); assay type: in vivo, mouse; conditions: for serum calcium: then 24 h PTH infusion
# Procedure: In accordance with the present invention, the effect of antisense oligonucleotide inhibition on PTH-induced serum calcium concentration increase was measured in mice. The serum calcium concentration in mice was measured as a function of antisense oligonucleotide dose. Calcitonin, a known bone antiresorptive agent, was used as a control for antiresorptive activity.
# (§1) Female Swiss-Webster (5-8 wks old) mice fed a low-calcium diet were dosed subcutaneously for two weeks with either the oligonucleotides ISIS 180819 (SEQ ID NO: 185) or 180814 (SEQ ID NO: 180) at concentrations of 5 mg/kg, 15 mg/kg, 30 mg/kg, or 40 mg/kg. A control group of mice were treated with calcitonin (400 ng) plus PTH (1 ug/100 g/6 hr), PTH alone (1 ug/100 g/6 hr) or saline. Treatment with oligonucleotides was followed with infusion of PTH by subcutaneously implanted mini-pumps at a dose of 1 ug/100 g/6 hr. After 24 hours of PTH infusion (total PTH delivery of 4 ug/100 g), the mice were sacrificed and the serum calcium concentration was measured with the Sigma Diagnostics Calcium Kit (Sigma-Aldrich). The data, summarized in Table 10 are averages from eight mice. Percent mRNA inhibition is normalized to PTH alone treatment.
# [7] = test system: RANKL mRNA; assay: RANKL mRNA % inhibition after PTH infusion in mice treated with RANKL antisense oligonucleotides for two weeks (Table 10); assay type: in vivo, mouse; conditions: then 24 h PTH infusion, normalized to PTH alone
# Procedure: as §1
# [8] = 5 mg/kg subcutaneously two weeks
# [9] = 15 mg/kg subcutaneously two weeks
# [10] = 30 mg/kg subcutaneously two weeks
substance,measurement,setting,value
143624 (antisense eT*eG*e[5mC]*eT*e[5mC]*dA*dG*d[5mC]*dG*dA*dG*dT*dG*dT*dG*e[5mC]*e[5mC]*eA*eG*e[5mC]) [compound 143624],% RANKL mRNA inhibition,[1]; 125 nM oligonucleotide 24 h,3%
same,% RANKL mRNA inhibition,[1]; 250 nM oligonucleotide 24 h,0%
same,% RANKL mRNA inhibition,[1]; 500 nM oligonucleotide 24 h,9%
same,% RANKL mRNA inhibition,[2],4%
180819 (antisense eT*eG*e[5mC]*eA*eG*dG*dT*d[5mC]*d[5mC]*d[5mC]*dA*dG*d[5mC]*dG*d[5mC]*eA*eA*eT*eG*eT) [compound 180819],% INHIB (inhibition of mouse RANKL mRNA levels),[3],66%
same,% Inhibition of RANKL mRNA,[4]; 10 nM oligonucleotide,41%
same,% Inhibition of RANKL mRNA,[4]; 50 nM oligonucleotide,39%
same,% Inhibition of RANKL mRNA,[4]; 75 nM oligonucleotide,57%
same,% Inhibition of RANKL mRNA,[4]; 100 nM oligonucleotide,71%
same,% Inhibition of RANKL mRNA,[4]; 150 nM oligonucleotide,75%
same,% RANKL mRNA inhibition,[1]; 125 nM oligonucleotide 24 h,39%
same,% RANKL mRNA inhibition,[1]; 250 nM oligonucleotide 24 h,71%
same,% RANKL mRNA inhibition,[1]; 500 nM oligonucleotide 24 h,85%
same,% RANKL mRNA inhibition,[2],19%
"tgcaggtcccagcgcaatgt (antisense eT*eG*e[5mC]*eA*eG*dG*dT*d[5mC]*d[5mC]*d[5mC]*dA*dG*d[5mC]*dG*d[5mC]*eA*eA*eT*eG*eT) [ISIS 180819, 2′-MOE gapmer targeted to mouse RANKL]",% INHIB (inhibition of mouse RANKL mRNA levels),[3],at least 40%
same,inhibition of PTH-induced increase in RANKL mRNA expression,"[1]; primary mouse osteoblast cells, 63 nM, 125 nM, 250 nM, or 500 nM, 24 hours, FuGENE 6, 10 nM PTH last 2 hours",able to inhibit the PTH-induced increase in RANKL mRNA expression
same,% Inhibition of RANKL,"[5]; intraperitoneal injection 15 mg/kg daily 2 weeks, proximal tibia, primer-probe set 1015",2%
same,% Inhibition of RANKL,"[5]; intraperitoneal injection 15 mg/kg daily 2 weeks, proximal tibia, primer-probe set 1207",0%
same,% Inhibition of RANKL,"[5]; intraperitoneal injection 30 mg/kg daily 2 weeks, calvaria, primer-probe set 1015",39%
same,% Inhibition of RANKL,"[5]; intraperitoneal injection 30 mg/kg daily 2 weeks, calvaria, primer-probe set 1207",24%
same,% Inhibition of RANKL,"[5]; intraperitoneal injection 30 mg/kg daily 2 weeks, proximal tibia, primer-probe set 1015",0%
same,% Inhibition of RANKL,"[5]; intraperitoneal injection 30 mg/kg daily 2 weeks, proximal tibia, primer-probe set 1207",0%
same,% Inhibition of RANKL,"[5]; intraperitoneal injection 50 mg/kg daily 2 weeks, calvaria, primer-probe set 1015",51%
same,% Inhibition of RANKL,"[5]; intraperitoneal injection 50 mg/kg daily 2 weeks, calvaria, primer-probe set 1207",54%
same,% Inhibition of RANKL,"[5]; intraperitoneal injection 50 mg/kg daily 2 weeks, proximal tibia, primer-probe set 1015",21%
same,% Inhibition of RANKL,"[5]; intraperitoneal injection 50 mg/kg daily 2 weeks, proximal tibia, primer-probe set 1207",13%
same,inhibition of PTH-induced increase in RANKL mRNA expression in the proximal tibia and calvaria,"[5]; mice, 2 weeks daily s.c. 30 or 50 mg/kg or i.p. 15, 30 or 50 mg/kg, 24 hours PTH infusion",capable of inhibiting the PTH-induced increase in RANKL mRNA expression; also recorded: greater inhibition observed in the calvaria
same,% Inhibition of RANKL,"[5]; subcutaneous injection 30 mg/kg daily 2 weeks, calvaria, primer-probe set 1015",38%
same,% Inhibition of RANKL,"[5]; subcutaneous injection 30 mg/kg daily 2 weeks, calvaria, primer-probe set 1207",38%
same,% Inhibition of RANKL,"[5]; subcutaneous injection 30 mg/kg daily 2 weeks, proximal tibia, primer-probe set 1015",5%
same,% Inhibition of RANKL,"[5]; subcutaneous injection 30 mg/kg daily 2 weeks, proximal tibia, primer-probe set 1207",10%
same,% Inhibition of RANKL,"[5]; subcutaneous injection 50 mg/kg daily 2 weeks, calvaria, primer-probe set 1015",60%
same,% Inhibition of RANKL,"[5]; subcutaneous injection 50 mg/kg daily 2 weeks, calvaria, primer-probe set 1207",52%
same,% Inhibition of RANKL,"[5]; subcutaneous injection 50 mg/kg daily 2 weeks, proximal tibia, primer-probe set 1015",32%
same,% Inhibition of RANKL,"[5]; subcutaneous injection 50 mg/kg daily 2 weeks, proximal tibia, primer-probe set 1207",36%
same,serum calcium,[6]; [8],21 mg/dL
same,serum calcium,[6]; [9],17 mg/dL
same,serum calcium,[6]; [10],19 mg/dL
same,PTH-induced increase in serum calcium concentration,"[6]; mice, s.c. two weeks 5, 15, 30 or 40 mg/kg, 24 hours PTH infusion",lessen the PTH-induced increase in serum calcium concentration
same,"RANKL mRNA, % inhib",[7]; [8],0 % inhib
same,"RANKL mRNA, % inhib",[7]; [9],0 % inhib
same,"RANKL mRNA, % inhib",[7]; [10],0 % inhib
